One data set concerns the target T1, recombinant GPX4 protein (Homo sapiens, UniProt P36969).
T1 construct: purchased Cayman Chemical SO960203
T1 sequence (P36969 1-197): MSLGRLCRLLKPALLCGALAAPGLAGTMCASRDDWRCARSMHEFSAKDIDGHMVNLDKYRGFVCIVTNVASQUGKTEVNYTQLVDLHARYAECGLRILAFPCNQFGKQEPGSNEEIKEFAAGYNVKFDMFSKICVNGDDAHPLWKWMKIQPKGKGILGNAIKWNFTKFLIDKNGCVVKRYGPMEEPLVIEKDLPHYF
The data set is described as follows: GPX4 inhibitor screening assay (Cayman Chemical cat #701880). The class given is biochemical. To be noted: 25 μM, one hour incubation; RSL3 without the 14-3-3 adapter protein. As for the experimental part: To determine whether the five ferroptosis-inducing compounds (1816, 8216, 3362, 1962, and 0973) inhibit GPX4 enzymatic activity in vitro, we used a commercially available GPX4 inhibitor screening kit (Cayman Chemical cat #701880). This assay measures a compound's ability to prevent cumene hydroperoxide reduction by recombinant GPX4 protein. Briefly, the five ferroptosis-inducing compounds (25 μM) were incubated with recombinant GPX4 protein for one hour before being run in the Cayman Chemicals GPX4 inhibitor screening assay according to manufacturer's recommendations. The assay read out is a change in absorbance between NADPH and NADP. ML162 (25 μM) and RSL3 (25 μM) were used as positive control compounds.
An enzymatic assay that measures the reduction of […] by GPX4 was used to test the ability of compounds 8216, 6666, 8147, and 3793 to inhibit the activity of GPX4. The enzymatic assay was performed using a commercially available kit (Cayman cat #701880). The compounds were tested at 8 concentrations in duplicate with the compound being diluted following manufacturer's instructions. The enzymatic reaction was allowed to continue for 1 hour prior to reading out the kinetic shift in absorbance that occurs as result of GPX4 […].

Data set [1] concerns HT-1080 fibrosarcoma cells. Put plainly: HT-1080 single-concentration cell viability screen (Cell Titer Glo). The format is cell-based. To be noted: 10 μM compound, 48 hours, duplicate, fraction of control. The text has this: To identify potential covalent inhibitors of GPX4, we screened a panel of 294 diverse small molecules from the Enamine covalent inhibitor library (Catalog No. CSL-10480-0-Z-10, Enamine, Monmouth, NJ). Each compound contains either a chloroacetamide or acrylamide moiety theoretically capable of forming a covalent bond with a selenocysteine. The small molecule compounds were selected for a diversity of backbone structures. The screening protocol used the cell viability assay Cell Titer Glo® (available from Promega, Madison, WI). Cell Titer Glo® is a luminescent cell viability that determines the number of viable cells in culture by quantifying ATP, which indicates the presence of metabolically active cells. Briefly, HT-1080 fibrosarcoma cells were plated 24 hours prior to treatment with 10 µM of each compound in the screening panel. Cell Titer Glo® was used to read out cell viability after 48 hours of compound exposure. Data was collected in duplicate.
To determine whether similar molecules could offer other starting points for a medicinal chemistry campaign, we screened 95 additional compounds that contain a similar base structure to that of 8216. Briefly, HT-1080 fibrosarcoma cells were treated with 10 µM of a compound for 48 hours and cell viability was measured by Cell Titer Glo®. Data was collected in duplicate. […]
A general note: ATP-based viability assays read luminescence as a measure of living cells.

For data set [2], the system named is HMOX1 gene transcription in IMR90 lung fibroblast cells. The data set is described as follows: PRO-seq transcriptional response (HMOX1) in IMR90 cells. The class given is cell-based. To be noted: one hour, RSL3 1 μM, ML162 1 μM, erastin 10 μM. The text has this: Expression of heme oxygenase 1 (HMOX1) mRNA may be used as a molecular response biomarker for induction of ferroptosis by direct inhibition of GPX4. To distinguish the transcriptional responses elicited by direct versus indirect inhibitors of GPX4, we profiled two direct GPX4 inhibitors, RSL3 and ML162, as well as one system Xc inhibitor, erastin, by Precision Run On followed by sequencing (PRO-seq) in IMR90 lung fibroblast cells. Briefly, IMR90 lung fibroblasts cells (a ferroptosis sensitive cell line) were treated with GPX inhibitors (RSL3 1 μM, ML162 1 μM) or system Xc inhibitor (erastin 10 µM) for one hour and samples were subjected to PRO-seq.

Data set [3] deals with HMOX1 expression in HT-1080 fibrosarcoma cells. The data set is described as follows: HMOX1 induction by RT-qPCR in HT-1080 cells. The class given is cell-based. As for the experimental part:
We tested several of our ferroptosis-inducing compounds for their ability to rapidly induce HMOX1 by RT-qPCR. Briefly, HT-1080 fibrosarcoma cells were treated with either 10 µM or 5 µM of compound RSL3, 8216, 1962, 1816, or 3362 for four hours. RNA was isolated and reverse transcribed and HMOX1 expression quantified by qPCR. Each sample was normalized to an ACTB housekeeping gene control and fold change was calculated relative to a DMSO control.
We tested several of the ferroptosis-inducing compounds for their ability to rapidly induce expression of HMOX1. Briefly, HT-1080 fibrosarcoma cells were plated in 6-well dishes 24 hours prior to treatment with 5 μM of 8147, 6047, 3793, Rsl3, 6666 or 8216 with and without the addition of ferrostatin-1 to the media. Cells were harvested from the plate after 4 hours of compound treatment by adding Trizol reagent directly to the plate to lyse the cells and preserve the RNA. RNA was isolated using the Direct-zol 96-well RNA kit (Zymo cat #R2054). Subsequently purity and quantity of RNA in the samples were measured using a Nanodrop (Thermo Fisher cat #ND-ONE-W). RNA samples were normalized to 2 μg and reverse transcribed to cDNA using the Multiscribe High-Capacity Reverse Transcription kit (Thermo Fisher cat #4368814) following manufacturer's instructions. Quantitative real time PCR was carried out in triplicate using SYBR Select Master Mix (Thermo Fisher cat #4472903) following manufacturer's instructions with primers designed against HMOX1 and ActB from IDT. HMOX1 expression levels were normalized to ActB for each sample then fold change was determined against the vehicle control, DMSO.
For orientation: In qPCR the cycle at which signal appears reflects the starting amount.

Molecules are shown by their SMILES.

On to `COC(=O)c1ccc([C@@H]2c3[nH]c4ccccc4c3C[C@@H](C(=O)OC)N2C(=O)CCl)cc1` [RSL3, reference compound], for which the “reduction in GPX4 enzymatic activity” value on recombinant GPX4 protein is reported as “about 55%”. For the same compound, the “Average relative cell viability” value in data set [1] came out at 0.00933. In addition, the “HMOX1 transcriptional activation (PRO-seq)” value in data set [2] is given as “robust transcriptional activation of the HMOX1 gene at one hour”. Besides, the “HMOX1 upregulation and rescue by ferrostatin-1 (RT-qPCR)” value in data set [3] (5 μM, 4 hours, with and without ferrostatin-1) is listed as “upregulation of HMOX1 which was rescued by the addition of ferrostatin-1, to varying degrees”. Moreover, the “HMOX1 induction (RT-qPCR)” value in data set [3] (10 μM or 5 μM, four hours, normalized to ACTB, relative to DMSO) was “induces HMOX1 dose-dependently”.

Source of the values: patent US20240315994A1, “SMALL MOLECULE MODULATORS OF FERROPTOSIS” (ARPEGGIO BIOSCIENCES, INC., priority 2021, published 2024).
